Data reported in patent publication US8937096B2, “Use of benzo-fused heterocyle sulfamide derivatives for the treatment of mania and bipolar disorder” (priority 2005, dated 2015).
Entries after “also recorded” stand apart in the source; their conditions may differ.

How the values were obtained:
[1] = test system: dominant rats; assay: Dominant-Submissive Relations (DSR) assay: Reduction of Dominant Behavior Model (RDBM) of mania; format: in vivo, rat
Method: (§1) The DSR assay is divided into two models: Reduction of Dominant Behavior Model (RDBM) of mania and Reduction of Submissive Behavior Model (RSBM) of depression. The RDBM, wherein the dominant animals are treated with test compound, is predictive of the ability of the test compound to treat mania. The RSBM, wherein the submissive animals are treated with test compound, is predictive of the ability of the test compound to treat depression.
(§2) Male Sprague Dawley rats (140 to 160 g) from Charles River Laboratories Wilmington, Mass. were used in this assay. Shipments of rats were received at two-week intervals. Each shipment went through five-day quarantine, one-week acclimation period, and one-week selection process, followed by five-weeks of drug or vehicle treatment to those pairs selected.
(§3) Rats were housed four per cage. Access to food was restricted to one hour per day after testing on Monday through Thursday. After testing on Friday, rats had free access to food until being fasted again on Sunday. At no time were the rats deprived of water. The food deprivation periods used had little effect on weight gain as the average weight of rats was about 300 g at the end of the study. At the conclusion of experiment rats were sacrificed by decapitation, the trunk blood and brains were collected for in vitro experiments and drug concentration measurements.
(§4) The basic testing apparatus consisted of two chambers connected with a tunnel only large enough to allow one rat to pass through at a time. On the floor, at the mid-point of the tunnel was a container of sweetened milk. This basic apparatus was replicated, so that a total of four pairs of rats can be video tracked simultaneously. The camera can distinguish rats marked by different colors. Thus, the rats' heads were colored for the purpose of video tracking, red in one cage and yellow in the other cage. Only one animal at a time can have comfortable access to the feeder, but both animals can drink milk during the five-minute daily session. During the five-minute daily sessions, time spent in the feeder zone by each rat was recorded by the video tracking software and saved into a text file.
The test began with a random assignment of rats into pairs. Each member of a pair was placed in an opposite chamber of the testing apparatus. The time spent in the feeder zone by each animal was recorded. During the first week (five days) of testing the animals habituate to the new environment. Dominance was assigned to the animal with the highest score during the second week of testing if three criteria were achieved. First, there must have been a significant difference (two-tailed t-test, P<0.05) between the average daily drinking scores of both animals. Second, the dominant animal score must have been at least 25% greater than the submissive animal's score. Finally, there must have been no “reversals” during the pair selection week where the putative submissive rat out-scored its dominant partner on isolated occasions. Ideally there were minimal reversals during the acclimation week as well. About twenty-five to thirty-three percent of the initial animal pairs achieved these criteria and only these pairs were continued in the study.
(§5) Significant differences between time spent on the feeder by dominant and submissive rats were determined by ANOVA using GraphPad Prism software (GraphPad Software, Inc. San Diego, Calif.) followed by a two-tailed t-test (P<0.05). Comparisons were made between treatment groups using normalized dominance level values in paired animals. The dominance level is a value that measures social relation between paired subjects. Dominance level (DL)=FTD−FTS where FTD is the feeder time of dominant rats and FTS is the feeder time of submissive rats. The normalization was conducted according to the formula: Dominance Level(week n in %)=(Dominance Level(week n))/(Dominance Level(week 2) […]

[2] = test system: submissive rats; assay: Dominant-Submissive Relations (DSR) assay: Reduction of Submissive Behavior Model (RSBM) of depression; format: in vivo, rat
Method: as §1, §2, §3, §4
The test began with a random assignment of rats into pairs. Each member of a pair was placed in an opposite chamber of the testing apparatus. The time spent in the feeder zone by each animal was recorded. During the first week (five days) of testing the animals habituate to the new environment. Dominance was assigned to the animal with the highest score during the second week of testing if three criteria were achieved. First, there must have been a significant difference (two-tailed t-test, P<0.05) between the average daily drinking scores of both animals. Second, the dominant animal score must have been at least 25% greater than the submissive animal's score. Finally, there must have been no “reversals” during the pair selection week where the putative submissive rat out-scored its dominant partner on isolated occasions. Ideally there were minimal reversals during the acclimation week as well. About twenty-five to thirty-three percent of the initial animal pairs achieved these criteria and only these pairs were continued in the study. […]
as §5

[3] = test system: hippocampal kindled seizures; assay: Rat Hippocampal Kindling Test (Interruption of Kindled State); format: in vivo
Method: In the present rapid hippocampal kindling model adult male Sprague-Dawley rats (300-400 g) were surgically implanted with bipolar electrodes placed in the hippocampus. […] One week later, the rats received 2-3 supra-threshold stimulations delivered every 30 min before treatment with test compound, to ensure stability of the behavioral seizure stage and after-discharge duration. Fifteen minutes after the last stimulation, a single dose of vehicle or test compound was administered i.p. (intraperitoneally). After 15 min, each rat was then stimulated every 30 min for 3 to 4 h. After each stimulation, individual seizure scores and after-discharge durations were recorded. The group mean±SEM were calculated for each parameter. Eight rats per dose and a minimum of four doses were used to establish an ED50 value. Efficacy was measured as the ability of a compound to modify the seizure score (severity of spread) and after-discharge duration (ADD; excitability) of the generalized seizures.
Thus, according to the theories presented in current literature (Ghaemi, S. N., Boiman, E. E., and Goodwin, F. K., Soc. of Bio. Psychiatry, (1999), vol. 45, pp 137-144; Stoll, A. L., and Severus, W. E., Harvard Rev. Psychiatry, July/August (1996), Vol. 4, No. 2, pp 77-89) a decrease in seizure score and/or ADD may also be predictive of the ability of a test compound to treat the cycling associated with bipolar disorder.

[4] = Median toxic dose (TD50) / toxic doses of Compound #8 and reference drugs; conditions: Sprague-Dawley, rat, in vivo, ip

NS(=O)(=O)NC[C@H]1COc2cc(Cl)ccc2O1 [Compound #8, (2S)-(−)-N-(6-Chloro-2,3-dihydro-benzo[1,4]dioxin-2-ylmethyl)-sulfamide]
AOT50 compared with lithium ([1]; 0.05 mg/kg and 0.5 mg/kg, non-linear regression fit of normalized daily DL values): significantly shorter from that of lithium
first day of consistent lack of statistical significance between feeder time of dominant and submissive rats (activity onset time) ([1]; 0.05 mg/kg p.o. QD): 3 days
first day of consistent lack of statistical significance between feeder time of dominant and submissive rats (activity onset time) ([1]; 0.5 mg/kg p.o. QD): 4 days
dominance level (DL) values vs vehicle ([1]; 0.5 mg/kg p.o. QD, 5 weeks, strongest effect): significant difference in dominance level (DL) values between vehicle and compound treated rats starting in the second week
first day of consistent lack of statistical significance between feeder time of dominant and submissive rats (activity onset time) ([1]; 2.5 mg/kg p.o. QD): 10 days
dominance level (DL) response ([1]; 2.5 mg/kg, 5.0 mg/kg and 50.0 mg/kg p.o., compared with 0.5 mg/kg dose (not significantly different)): weaker response
first day of consistent lack of statistical significance between feeder time of dominant and submissive rats (activity onset time) ([1]; 5.0 mg/kg p.o. QD): 11 days
first day of consistent lack of statistical significance between feeder time of dominant and submissive rats (activity onset time) ([1]; 50.0 mg/kg p.o. QD): 3 days
ED50 ([1]; Rattus norvegicus, po, p.o. QD, calculated): 0.03 ± 0.004 mg/kg
difference between dominant and submissive rats lost ([1]; dominant rats treated p.o. QD at 0.05 mg/kg, 0.5 mg/kg and 50.0 mg/kg): lost after the first week of treatment
difference between dominant and submissive rats lost ([1]; dominant rats treated p.o. QD at 2.5 mg/kg and 5.0 mg/kg): after the second week of treatment
dominant behavior ([1]; overall result of the assay): reduced dominant behavior
Emax in the RDBM ([1]; p.o. QD, calculated): 116.4±2.3%
permissiveness of the treated dominant rats ([1]; treated dominant rats permitted submissive partners to increase time on the feeder): observed to increase
loss of significance between dominant and submissive rats feeder time ([2]; 2.5 mg/kg and 120.0 mg/kg p.o.): no consistent loss of significance
Activity Onset Time at the 50% effect (AOT50) ([2]; 2.5 mg/kg p.o.): 2.1 days
Dominance Level (DL) values vs control ([2]; 2.5 mg/kg p.o.): did not significantly differ from control
maximum of the effect (non-linear regression), ± SEM ([2]; 2.5 mg/kg p.o.): 52.4±32.7%
Activity Onset Time at the 50% effect (AOT50) ([2]; 12 mg/kg p.o.): 5.3 days
maximum of the effect (non-linear regression), ± SEM ([2]; 12 mg/kg p.o.): 87.9±42.6%
Dominance Level (DL) values vs control ([2]; 12.0 mg/kg p.o.): significantly different from vehicle treated controls after the second, fourth and fifth week of treatment
first day of consistent lack of statistical significance between feeder time of dominant and submissive rats (activity onset time) ([2]; 12.0 mg/kg p.o.): 6 days
Activity Onset Time at the 50% effect (AOT50) ([2]; 60 mg/kg p.o.): 1.6 days
Dominance Level (DL) values vs control ([2]; 60 mg/kg p.o.): significant difference in DL values relative to vehicle starting at the first week and continuing through the treatment duration of 5 weeks
first day of consistent lack of statistical significance between feeder time of dominant and submissive rats (activity onset time) ([2]; 60 mg/kg p.o.): 4 days
maximum of the effect (non-linear regression), ± SEM ([2]; 60 mg/kg p.o.): 116.9±29.5%
Dominance Level (DL) values vs control ([2]; 120 mg/kg p.o., significance dissipated after the second week): significantly different from the control group after first week
submissiveness during first week of treatment ([2]; fluoxetine 10 mg/kg i.p., Compound #8 treated groups p.o.): did not show this effect
submissive behavior ([2]; p.o. once a day for 5 weeks, 2.5-120 mg/kg): reduce submissive behavior in a dose-dependent manner; also recorded: reduced submissive behavior
Emax in the RSBM ([2]; p.o., calculated): 131.4±4.7%
significant difference between dominant and submissive rats lost ([2]; submissive rats treated p.o., all doses used (2.5, 12, 60, 120 mg/kg)): lost after the first week of treatment
rats with significant reduction in global seizure activity (score <3) ([3]; after treatment i.p.): 6 out of 8
rats with seizure scores significantly reduced from 5 to 1 ([3]; i.p., p=0.0003): 4 out of 8
effect on the ADD (after-discharge duration) ([3]; i.p., p=0.07): no statistically significant effect
TD50 [4]: ~100 mg/kg
